Measured values: US20240101528A1, “SUBSTITUTED PYRAZOLO PIPERIDINE CARBOXYLIC ACIDS” (BAYER AKTIENGESELLSCHAFT, priority 2020, published 2024)
Where a name gives a salt, the structure may show the parent alone.

Target: T1, recombinant guanylate cyclase reporter cell line (Rattus norvegicus, UniProt P20595)
T1 construct: expressed in transfected cells
T1 sequence (P20595 1-619): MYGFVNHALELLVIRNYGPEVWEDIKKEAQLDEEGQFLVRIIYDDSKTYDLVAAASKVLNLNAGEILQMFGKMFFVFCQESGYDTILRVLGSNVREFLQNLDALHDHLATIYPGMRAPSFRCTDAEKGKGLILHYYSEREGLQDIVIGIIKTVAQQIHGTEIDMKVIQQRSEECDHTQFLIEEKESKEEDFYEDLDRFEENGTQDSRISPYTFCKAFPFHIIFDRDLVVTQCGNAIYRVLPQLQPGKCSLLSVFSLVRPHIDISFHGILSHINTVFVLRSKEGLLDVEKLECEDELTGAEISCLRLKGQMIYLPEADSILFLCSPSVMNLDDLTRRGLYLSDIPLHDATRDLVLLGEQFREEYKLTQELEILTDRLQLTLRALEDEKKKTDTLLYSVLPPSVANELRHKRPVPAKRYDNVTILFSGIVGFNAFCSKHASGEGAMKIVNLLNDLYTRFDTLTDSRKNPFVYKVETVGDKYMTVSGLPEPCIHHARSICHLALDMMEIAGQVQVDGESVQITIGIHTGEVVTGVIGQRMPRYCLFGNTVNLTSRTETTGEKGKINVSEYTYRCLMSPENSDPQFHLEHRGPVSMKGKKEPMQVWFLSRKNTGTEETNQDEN
T1 sequence (P19686 1-690 partner): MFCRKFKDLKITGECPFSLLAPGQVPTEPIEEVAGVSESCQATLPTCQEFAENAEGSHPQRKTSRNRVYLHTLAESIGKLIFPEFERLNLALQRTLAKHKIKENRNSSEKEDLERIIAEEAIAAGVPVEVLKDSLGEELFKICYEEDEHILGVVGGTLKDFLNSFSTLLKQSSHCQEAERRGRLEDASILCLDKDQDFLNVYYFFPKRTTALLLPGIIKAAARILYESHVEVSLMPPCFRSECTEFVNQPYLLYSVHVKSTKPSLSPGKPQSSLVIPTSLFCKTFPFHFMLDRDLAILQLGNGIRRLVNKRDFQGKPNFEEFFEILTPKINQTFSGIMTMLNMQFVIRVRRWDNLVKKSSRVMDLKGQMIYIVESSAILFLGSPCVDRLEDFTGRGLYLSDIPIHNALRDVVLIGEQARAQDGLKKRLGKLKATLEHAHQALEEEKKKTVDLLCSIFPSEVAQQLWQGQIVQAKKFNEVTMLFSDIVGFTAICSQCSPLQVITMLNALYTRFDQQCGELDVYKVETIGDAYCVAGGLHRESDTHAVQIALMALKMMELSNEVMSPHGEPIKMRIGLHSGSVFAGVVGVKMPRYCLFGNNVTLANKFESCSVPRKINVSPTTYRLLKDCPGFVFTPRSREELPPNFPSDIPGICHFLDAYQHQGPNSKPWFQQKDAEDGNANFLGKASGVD
Assay: Effect on a recombinant guanylate cyclase reporter cell line
Format: cell-based
Settings: for EC50: half maximal effective concentration; for MEC: minimum effective concentration
Procedure: B-1. Effect on a Recombinant Guanylate Cyclase Reporter Cell Line
The cellular activity of the compounds according to the invention was determined using a recombinant guanylate cyclase reporter cell line, as described in F. Wunder et al., Anal. Biochem. 339, 104-112 (2005).

| SMILES | EC50 [nM] | MEC [nM] |
| --- | --- | --- |
| CCN1CCN(c2ccc(-c3ccc(Cl)cc3N3CC(n4ncc(C(=O)O)c4C(F)F)CC(F)(F)C3)cc2)CC1 (single isomer, unassigned; enantiomer 2) [Example 53, 1-{1-[4-chloro-4′-(4-ethylpiperazin-1-yl)[biphenyl]-2-yl]-5,5-difluoropiperidin-3-yl}-5-(difluoromethyl)-1H-pyrazole-4-carboxylic acid hydrochloride (Enantiomer 2)] | 34 | 10.0 |
| O=C(O)c1cnn(C2CCCN(c3cc(Cl)ccc3-c3ccc(C4CN(CC(F)(F)F)C4)cc3)C2)c1C(F)F (single isomer, unassigned; enantiomer 2) [Example 58, 1-(1-{4-Chloro-4′-[1-(2,2,2-trifluoroethyl)azetidin-3-yl][biphenyl]-2-yl}piperidin-3-yl)-5-(difluoromethyl)-1H-pyrazole-4-carboxylic acid hydrochloride (Enantiomer 2)] | 31.5 | 3.0 |
| O=C(O)c1cnn(C2CCCN(c3cc(Cl)ccc3-c3ccc(C4CN(CCC(F)(F)F)C4)cc3)C2)c1C(F)F (single isomer, unassigned; enantiomer 2) [Example 59, 1-(1-{4-Chloro-4′-[1-(3,3,3-trifluoropropyl)azetidin-3-yl][biphenyl]-2-yl}piperidin-3-yl)-5-(difluoromethyl)-1H-pyrazole-4-carboxylic acid hydrochloride (Enantiomer 2)] | 8.7 | 3.0 |
| CCN1CCN(c2ccc(-c3ccc(Cl)cc3N3CCCC(n4ncc(C(=O)O)c4C(F)F)C3)cn2)CC1 (single isomer, unassigned; enantiomer 2) [Example 60, 1-(1-{5-Chloro-2-[6-(4-ethylpiperazin-1-yl)pyridin-3-yl]phenyl}piperidin-3-yl)-5-(difluoromethyl)-1H-pyrazole-4-carboxylic acid hydrochloride (Enantiomer 2)] | 70 | 30.0 |
| CCCN1CCN(c2ccc(-c3ccc(Cl)cc3N3CCCC(n4ncc(C(=O)O)c4C(F)F)C3)cn2)CC1 (single isomer, unassigned; enantiomer 2) [Example 61, 1-(1-{5-Chloro-2-[6-(4-propylpiperazin-1-yl)pyridin-3-yl]phenyl}piperidin-3-yl)-5-(difluoromethyl)-1H-pyrazole-4-carboxylic acid hydrochloride (Enantiomer 2)] | 28.5 | 10.0 |
| CC(C)CN1CCN(c2ccc(-c3ccc(Cl)cc3N3CCCC(n4ncc(C(=O)O)c4C(F)F)C3)cn2)CC1 (single isomer, unassigned; enantiomer 2) [Example 62, 1-(1-{5-Chloro-2-[6-(4-isobutylpiperazin-1-yl)pyridin-3-yl]phenyl}piperidin-3-yl)-5-(difluoromethyl)-1H-pyrazole-4-carboxylic acid hydrochloride (Enantiomer 2)] | 7.5 | 3.0 |
| O=C(O)c1cnn(C2CCCN(c3cc(Cl)ccc3-c3ccc(N4CCN(CC(F)(F)F)CC4)nc3)C2)c1C(F)F (single isomer, unassigned; enantiomer 2) [Example 65, 1-[1-(5-Chloro-2-{6-[4-(2,2,2-trifluoroethyl)piperazin-1-yl]pyridin-3-yl}phenyl)piperidin-3-yl]-5-(difluoromethyl)-1H-pyrazole-4-carboxylic acid hydrochloride (Enantiomer 2)] | 6.9 | 1.0 |
| Cc1cc(N2CCN(CC(F)(F)F)CC2)ncc1-c1ccc(Cl)cc1N1CCCC(n2ncc(C(=O)O)c2C(F)F)C1 (single isomer, unassigned; enantiomer 2) [Example 69, 1-[1-(5-Chloro-2-{4-methyl-6-[4-(2,2,2-trifluoroethyl)piperazin-1-yl]pyridin-3-yl}phenyl)piperidin-3-yl]-5-(difluoromethyl)-1H-pyrazole-4-carboxylic acid hydrochloride (Enantiomer 2)] | 45.5 | 30.0 |

Second part, the compound after the results:

| EC50 [nM] | MEC [nM] | SMILES |
| --- | --- | --- |
| 28.4 | 3.0 | CC(C)CC(=O)N1CCN(c2ccc(-c3ccc(Cl)cc3N3CCCC(n4ncc(C(=O)O)c4C(F)F)C3)cc2)CC1 (single isomer, unassigned; enantiomer 2) [Example 51, 1-(1-{4-Chloro-4′-[4-(3-methylbutanoyl)piperazin-1-yl][biphenyl]-2-yl}piperidin-3-yl)-5-(difluoromethyl)-1H-pyrazole-4-carboxylic acid (Enantiomer 2)] |
| 56.5 | 10.0 | CC(C)CN1CCN(c2ccc(-c3ccc(Cl)cc3N3CC(n4ncc(C(=O)O)c4C(F)F)CC(F)(F)C3)cc2)CC1 (single isomer, unassigned; enantiomer 2) [Example 55, 1-{1-[4-Chloro-4′-(4-isobutylpiperazin-1-yl)[biphenyl]-2-yl]-5,5-difluoropiperidin-3-yl}-5-(difluoromethyl)-1H-pyrazole-4-carboxylic acid hydrochloride (Enantiomer 2)] |
| 1.5 | 1.0 | CCC(=O)N1CCC(c2ccc(-c3ccc(Cl)cc3N3CCCC(n4ncc(C(=O)O)c4C(F)F)C3)cc2)CC1 (single isomer, unassigned; enantiomer 2) [Example 56, 1-{1-[4-Chloro-4′-(1-propanoylpiperidin-4-yl)[biphenyl]-2-yl]piperidin-3-yl}-5-(difluoromethyl)-1H-pyrazole-4-carboxylic acid hydrochloride (Enantiomer 2)] |
| < 1 | 0.3 | O=C(O)c1cnn(C2CCCN(c3cc(Cl)ccc3-c3ccc(C4CCN(C(=O)C5CC5)CC4)cc3)C2)c1C(F)F (single isomer, unassigned; enantiomer 2) [Example 57, 1-(1-{4-Chloro-4′-[1-(cyclopropylcarbonyl)piperidin-4-yl][biphenyl]-2-yl}piperidin-3-yl)-5-(difluoromethyl)-1H-pyrazole-4-carboxylic acid hydrochloride (Enantiomer 2)] |
| 68 | 10.0 | O=C(O)c1cnn(C2CCCN(c3cc(Cl)ccc3-c3ccc(N4CCN(CC5CC5)CC4)nc3)C2)c1C(F)F (single isomer, unassigned; enantiomer 2) [Example 63, 1-[1-(5-Chloro-2-{6-[4-(cyclopropylmethyl)piperazin-1-yl]pyridin-3-yl}phenyl)piperidin-3-yl]-5-(difluoromethyl)-1H-pyrazole-4-carboxylic acid hydrochloride (Enantiomer 2)] |
| < 1 | <0.3 | O=C(O)c1cnn(C2CCCN(c3cc(Cl)ccc3-c3ccc(N4CCN(CCC(F)(F)F)CC4)nc3)C2)c1C(F)F (single isomer, unassigned; enantiomer 2) [Example 67, 1-[1-(5-Chloro-2-{6-[4-(3,3,3-trifluoropropyl)piperazin-1-yl]pyridin-3-yl}phenyl)piperidin-3-yl]-5-(difluoromethyl)-1H-pyrazole-4-carboxylic acid hydrochloride (Enantiomer 2)] |
| 68 | 30.0 | CC(=O)N1CCN(c2ccc(-c3ccc(Cl)cc3N3CCCC(n4ncc(C(=O)O)c4C(F)F)C3)cn2)CC1 (single isomer, unassigned; enantiomer 2) [Example 68, 1-(1-{2-[6-(4-Acetylpiperazin-1-yl)pyridin-3-yl]-5-chlorophenyl}piperidin-3-yl)-5-(difluoromethyl)-1H-pyrazole-4-carboxylic acid hydrochloride (Enantiomer 2)] |
| 21.5 | 3.0 | CC(C)CN1CCN(c2ncc(-c3ccc(Cl)cc3N3CCCC(n4ncc(C(=O)O)c4C(F)F)C3)cn2)CC1 (single isomer, unassigned; enantiomer 2) [Example 70, 1-(1-{5-Chloro-2-[2-(4-isobutylpiperazin-1-yl)pyrimidin-5-yl]phenyl}piperidin-3-yl)-5-(difluoromethyl)-1H-pyrazole-4-carboxylic acid hydrochloride (Enantiomer 2)] |
